{"source": "patent US6355799B1", "about": "“Substituted benzene compounds, process for their preparation, and herbicidal and defoliant compositions containing them” (ISK Americas Incorporated, priority 1997, dated 2002)", "format_in_all_cases": "in vivo", "key": {"[1]": {"tested_on": "upland rice (Oryza sp., var. Tebonnet, RICE)", "experiment": "Pre-emerge test, crop safety", "settings": "crop damage, pre-emerge, phytotoxicity rating 0-100 at 14 days after application", "method_in_brief": "(§1)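 Herbicidal damage is scored 0 (none) to 100 (complete plant death) two weeks after a simulated field spray. Rates span 15–1000 g ai/ha, delivered in acetone at 187 l/ha. For post-emergence treatments, plants have 2–3 leaves and the spray carries 0.25% v/v non-ionic surfactant.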"}, "[2]": {"tested_on": "field corn (Zea mays L., var. Dekalb 535, CORN)", "experiment": "Pre-emerge test, crop safety", "settings": "crop damage, pre-emerge, phytotoxicity rating 0-100 at 14 days after application", "method_in_brief": "as §1"}, "[3]": {"tested_on": "redroot pigweed (Amaranthus retroflexus, AMARE)", "experiment": "Pre-emerge test, greenhouse herbicide activity screening", "settings": "pre-emerge, phytotoxicity rating 0-100 at 14 days after application", "method_in_brief": "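Sandy loam pots; pre-emerge: sown 1 d pre-spray, surface-watered after, then bottom-watered. Post-emerge: sown 8–21 d before, 2–3 leaf stage, + 0.25% v/v NIS, bottom-watered. Acetone, 187 l/ha track spray, 15–1000 g ai/ha. 0–100 injury score, day 14.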"}, "[4]": {"tested_on": "large crabgrass (Digitaria sanguinalis, DIGSA)", "experiment": "Pre-emerge test, greenhouse herbicide activity screening", "settings": "pre-emerge, phytotoxicity rating 0-100 at 14 days after application", "method_in_brief": "as §1"}, "[5]": {"tested_on": "lambsquarters (Chenopodium album, CHEAL)", "experiment": "Pre-emerge test, greenhouse herbicide activity screening", "settings": "pre-emerge, phytotoxicity rating 0-100 at 14 days after application", "method_in_brief": "as §1"}, "[6]": {"tested_on": "ivyleaf morningglory (Ipomoea hederacea, IPOHE)", "experiment": "Pre-emerge test, greenhouse herbicide activity screening", "settings": "pre-emerge, phytotoxicity rating 0-100 at 14 days after application", "method_in_brief": "as §1"}, "[7]": {"tested_on": "green foxtail (Setaria viridis, SETVI)", "experiment": "Pre-emerge test, greenhouse herbicide activity screening", "settings": "pre-emerge, phytotoxicity rating 0-100 at 14 days after application", "method_in_brief": "as §1"}, "[8]": {"tested_on": "sicklepod (Cassia obtusifolia, CASOB)", "experiment": "Pre-emerge test, greenhouse herbicide activity screening", "settings": "pre-emerge, phytotoxicity rating 0-100 at 14 days after application", "method_in_brief": "as §1"}, "[9]": {"tested_on": "barnyardgrass (Echinochloa crus-galli, ECHCG)", "experiment": "Pre-emerge test, greenhouse herbicide activity screening", "settings": "pre-emerge, phytotoxicity rating 0-100 at 14 days after application", "method_in_brief": "as §1"}, "[10]": {"tested_on": "johnsongrass (Sorghum halepense, SORHA)", "experiment": "Pre-emerge test, greenhouse herbicide activity screening", "settings": "pre-emerge, phytotoxicity rating 0-100 at 14 days after application", "method_in_brief": "as §1"}, "[11]": {"tested_on": "velvetleaf (Abutilon theophrasti, ABUTH)", "experiment": "Pre-emerge test, greenhouse herbicide activity screening", "settings": "pre-emerge, phytotoxicity rating 0-100 at 14 days after application", "method_in_brief": "as §1"}, "[12]": {"tested_on": "upland rice (Oryza sp., var. Tebonnet, RICE)", "experiment": "Post-emerge test, crop safety", "settings": "post-emerge, crop damage rating 0-100 at 14 days after application", "method_in_brief": "as §1"}, "[13]": {"tested_on": "field corn (Zea mays L., var. Dekalb 535, CORN)", "experiment": "Post-emerge test, crop safety", "settings": "post-emerge, crop damage rating 0-100 at 14 days after application", "method_in_brief": "as §1"}, "[14]": {"tested_on": "large crabgrass (Digitaria sanguinalis, DIGSA)", "experiment": "Post-emerge test, greenhouse herbicide activity screening", "settings": "post-emerge, phytotoxicity rating 0-100 at 14 days after application", "method_in_brief": "(§2)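 Visual ratings on a 0-100 scale (0 no damage, 100 all plants dead) were taken at 14 days after treatment. Rates of 15-1000 g ai/ha in acetone, 187 l/ha, were sprayed onto soil one day after planting (pre-emerge) or onto 2-3 leaf plants with 0.25% v/v surfactant (post-emerge).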"}, "[15]": {"tested_on": "lambsquarters (Chenopodium album, CHEAL)", "experiment": "Post-emerge test, greenhouse herbicide activity screening", "settings": "post-emerge, phytotoxicity rating 0-100 at 14 days after application", "method_in_brief": "as §2"}, "[16]": {"tested_on": "ivyleaf morningglory (Ipomoea hederacea, IPOHE)", "experiment": "Post-emerge test, greenhouse herbicide activity screening", "settings": "post-emerge, phytotoxicity rating 0-100 at 14 days after application", "method_in_brief": "as §2"}, "[17]": {"tested_on": "green foxtail (Setaria viridis, SETVI)", "experiment": "Post-emerge test, greenhouse herbicide activity screening", "settings": "post-emerge, phytotoxicity rating 0-100 at 14 days after application", "method_in_brief": "as §2"}, "[18]": {"tested_on": "sicklepod (Cassia obtusifolia, CASOB)", "experiment": "Post-emerge test, greenhouse herbicide activity screening", "settings": "post-emerge, phytotoxicity rating 0-100 at 14 days after application", "method_in_brief": "as §2"}, "[19]": {"tested_on": "barnyardgrass (Echinochloa crus-galli, ECHCG)", "experiment": "Post-emerge test, greenhouse herbicide activity screening", "settings": "post-emerge, phytotoxicity rating 0-100 at 14 days after application", "method_in_brief": "as §2"}, "[20]": {"tested_on": "redroot pigweed (Amaranthus retroflexus, AMARE)", "experiment": "Post-emerge test, greenhouse herbicide activity screening", "settings": "post-emerge, phytotoxicity rating 0-100 at 14 days after application", "method_in_brief": "as §2"}, "[21]": {"tested_on": "johnsongrass (Sorghum halepense, SORHA)", "experiment": "Post-emerge test, greenhouse herbicide activity screening", "settings": "post-emerge, phytotoxicity rating 0-100 at 14 days after application", "method_in_brief": "as §2"}, "[22]": {"tested_on": "velvetleaf (Abutilon theophrasti, ABUTH)", "experiment": "Post-emerge test, greenhouse herbicide activity screening", "settings": "post-emerge, phytotoxicity rating 0-100 at 14 days after application", "method_in_brief": "as §2"}}, "data": [{"compound": "C#CCOc1c(Cl)cc(F)c(N2C(=O)C3=C(CCCC3)C2=O)c1NC(=O)c1ccc(F)cc1F", "note": "[8-13]", "values": [{"measurement": "Pre-emerge Herbicidal Activity RICE", "setting": "[1]; rate 63 g ai/ha", "value": 10}, {"measurement": "Pre-emerge Herbicidal Activity RICE", "setting": "[1]; rate 125 g ai/ha", "value": 10}, {"measurement": "Pre-emerge Herbicidal Activity CORN", "setting": "[2]; rate 63 g ai/ha", "value": 0}, {"measurement": "Pre-emerge Herbicidal Activity CORN", "setting": "[2]; rate 125 g ai/ha", "value": 0}, {"measurement": "Pre-emerge Herbicidal Activity AMARE", "setting": "[3]; rate 63 g ai/ha", "value": 50}, {"measurement": "Pre-emerge Herbicidal Activity AMARE", "setting": "[3]; rate 125 g ai/ha", "value": 70}, {"measurement": "Pre-emerge Herbicidal Activity DIGSA", "setting": "[4]; rate 63 g ai/ha", "value": 0}, {"measurement": "Pre-emerge Herbicidal Activity DIGSA", "setting": "[4]; rate 125 g ai/ha", "value": 40}, {"measurement": "Pre-emerge Herbicidal Activity CHEAL", "setting": "[5]; rate 63 g ai/ha", "value": 100}, {"measurement": "Pre-emerge Herbicidal Activity CHEAL", "setting": "[5]; rate 125 g ai/ha", "value": 70}, {"measurement": "Pre-emerge Herbicidal Activity IPOHE", "setting": "[6]; rate 63 g ai/ha", "value": 0}, {"measurement": "Pre-emerge Herbicidal Activity IPOHE", "setting": "[6]; rate 125 g ai/ha", "value": 0}, {"measurement": "Pre-emerge Herbicidal Activity SETVI", "setting": "[7]; rate 63 g ai/ha", "value": 20}, {"measurement": "Pre-emerge Herbicidal Activity SETVI", "setting": "[7]; rate 125 g ai/ha", "value": 40}, {"measurement": "Pre-emerge Herbicidal Activity CASOB", "setting": "[8]; rate 63 g ai/ha", "value": 0}, {"measurement": "Pre-emerge Herbicidal Activity CASOB", "setting": "[8]; rate 125 g ai/ha", "value": 0}, {"measurement": "Pre-emerge Herbicidal Activity ECHCG", "setting": "[9]; rate 63 g ai/ha", "value": 0}, {"measurement": "Pre-emerge Herbicidal Activity ECHCG", "setting": "[9]; rate 125 g ai/ha", "value": 30}, {"measurement": "Pre-emerge Herbicidal Activity SORHA", "setting": "[10]; rate 63 g ai/ha", "value": 0}, {"measurement": "Pre-emerge Herbicidal Activity SORHA", "setting": "[10]; rate 125 g ai/ha", "value": 30}, {"measurement": "Pre-emerge Herbicidal Activity ABUTH", "setting": "[11]; rate 63 g ai/ha", "value": 90}, {"measurement": "Pre-emerge Herbicidal Activity ABUTH", "setting": "[11]; rate 125 g ai/ha", "value": 100}, {"measurement": "Post-emerge Herbicidal Activity RICE", "setting": "[12]; 63 g ai/ha", "value": 30}, {"measurement": "Post-emerge Herbicidal Activity RICE", "setting": "[12]; 125 g ai/ha", "value": 70}, {"measurement": "Post-emerge Herbicidal Activity CORN", "setting": "[13]; 63 g ai/ha", "value": 10}, {"measurement": "Post-emerge Herbicidal Activity CORN", "setting": "[13]; 125 g ai/ha", "value": 40}, {"measurement": "Post-emerge Herbicidal Activity DIGSA", "setting": "[14]; 63 g ai/ha", "value": 20}, {"measurement": "Post-emerge Herbicidal Activity DIGSA", "setting": "[14]; 125 g ai/ha", "value": 10}, {"measurement": "Post-emerge Herbicidal Activity CHEAL", "setting": "[15]; 63 g ai/ha", "value": 90}, {"measurement": "Post-emerge Herbicidal Activity CHEAL", "setting": "[15]; 125 g ai/ha", "value": 90}, {"measurement": "Post-emerge Herbicidal Activity IPOHE", "setting": "[16]; 63 g ai/ha", "value": 50}, {"measurement": "Post-emerge Herbicidal Activity IPOHE", "setting": "[16]; 125 g ai/ha", "value": 60}, {"measurement": "Post-emerge Herbicidal Activity SETVI", "setting": "[17]; 63 g ai/ha", "value": 30}, {"measurement": "Post-emerge Herbicidal Activity SETVI", "setting": "[17]; 125 g ai/ha", "value": 30}, {"measurement": "Post-emerge Herbicidal Activity CASOB", "setting": "[18]; 63 g ai/ha", "value": 30}, {"measurement": "Post-emerge Herbicidal Activity CASOB", "setting": "[18]; 125 g ai/ha", "value": 50}, {"measurement": "Post-emerge Herbicidal Activity ECHCG", "setting": "[19]; 63 g ai/ha", "value": 20}, {"measurement": "Post-emerge Herbicidal Activity ECHCG", "setting": "[19]; 125 g ai/ha", "value": 40}, {"measurement": "Post-emerge Herbicidal Activity AMARE", "setting": "[20]; 63 g ai/ha", "value": 100}, {"measurement": "Post-emerge Herbicidal Activity AMARE", "setting": "[20]; 125 g ai/ha", "value": 100}, {"measurement": "Post-emerge Herbicidal Activity SORHA", "setting": "[21]; 63 g ai/ha", "value": 10}, {"measurement": "Post-emerge Herbicidal Activity SORHA", "setting": "[21]; 125 g ai/ha", "value": 20}, {"measurement": "Post-emerge Herbicidal Activity ABUTH", "setting": "[22]; 63 g ai/ha", "value": 100}, {"measurement": "Post-emerge Herbicidal Activity ABUTH", "setting": "[22]; 125 g ai/ha", "value": 100}]}]}
